Molecules are shown by their SMILES. Where “and” joins values, the source holds several entries; their conditions need not be identical. Identical values can stand only once.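 96-well plates; 48 h exposure; 5 concentrations. Endpoints by linear interpolation between flanking doses. Not reached: highest tested concentration assigned. Here, GI50 denotes the concentration required for 50% inhibition of growth. At the TGI there is no net growth.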

Common to all, as to assay: inhibition of tumour cell growth, NCI panel, 48 h
For assay [1], the system named is CAKI-1 renal.
The test system of assay [2] is MOLT-4 leukemia.
The test system of assay [3] is OVCAR-3 ovarian.
The subject of assay [4] is UACC-257 melanoma.
For assay [5], the system named is COLO 205 colon.
Assay [6] concerns NCI-H226 lung.
For assay [7], the system named is SK-MEL-28 melanoma.
Assay [8] relates to NCI-H522 lung.
The test system of assay [9] is SW-620 colon.
The subject of assay [10] is M14 melanoma.

On to `Cc1c(N=Nc2ccc([N+](=O)[O-])cc2)nc2scc(-c3ccccc3)n12`, for which the TGI in assay [1], in [2], in [3], in assay [4], in [5] and in assay [6] was > 100 µM throughout. Further, the TGI in [7], in assay [8], in assay [9] and in assay [10] was > 100 µM throughout.

With `Nc1ccccc1C#C/C=C\C#Cc1ccccc1C(F)(F)F`, the GI50 was 1.1 µM in assay [1]; > 61.3 µM in assay [2]; 0.673 µM in assay [3]; 0.536 µM in [4]; 1.92 µM in assay [5]; 0.233 µM in assay [6]. Also, the GI50 in assay [7] was 18.2 µM; in assay [8], 2.07 µM; in assay [9] it was 1.5 µM; in [10], 0.422 µM. For the same compound, the TGI in [1] is 10.1 µM; in assay [2], > 100 µM; in assay [3] it was 1.89 µM; in assay [4], 23.7 µM; in assay [5] it was > 37.2 µM; in assay [6], 19.3 µM. For the same compound, the TGI in assay [7] is > 100 µM; in [8], 34.3 µM; in [9], 41 µM; in [10], 9.74 µM.

For `O=c1cc(C(F)(F)F)c2cc3c(cc2o1)NCCC3`, the TGI in assay [1], in [2], in [3], in [4], in assay [5] and in [6] was > 100 µM in each case. Also, the TGI in assay [7], in assay [8], in assay [9] and in assay [10] was > 100 µM throughout.

Take `O=C1CCC(Cc2ccc(Cl)cc2Cl)C(=O)N1` (stereo not given): the TGI in assay [1], in assay [2], in [3], in assay [4], in assay [5] and in assay [6] was > 100 µM in each case. Moreover, the TGI in [7], in assay [8], in assay [9] and in assay [10] was > 100 µM in each case.

Turning to `CCCC[C@H]1C(=O)O[C@H](C)[C@H](NC(=O)c2cccc(NC=O)c2O)C(=O)O[C@@H](C)[C@@H]1OC(=O)CC(C)C`, the TGI came out at 40.9 µM in [1]; 53 µM in assay [2]; 24.6 µM in [3]; 69.6 µM in assay [4]; 31.6 µM in assay [5]; 23.8 µM in assay [6]. Besides, the TGI worked out at 72.9 µM in assay [7], 31.6 µM in assay [8], 68.3 µM in assay [9] and 47.7 µM in assay [10].

For the compound `O=C(/C=C/c1ccc(OCC(=O)N2CCN(c3ccccc3)CC2)cc1)c1ccc(Cl)cc1`, the TGI in [1] is > 100 µM; in assay [2] it was > 100 µM; in assay [3] it was > 100 µM; in assay [4], > 100 µM; in [5] it was > 100 µM; in assay [6], 97.9 µM. Further, the TGI in assay [7], in [8], in assay [9] and in assay [10] was > 100 µM throughout.

As to `Cc1c(C#N)cccc1-c1cc(-c2cn(Cc3cccc(C(C)(C)O)n3)nn2)nc(N)n1`, the GI50 in assay [1] is 10.4 µM; in [2] it was 21.3 µM; in assay [3] it was 17.6 µM; in assay [4] it was 27.7 µM; in assay [5], 25.9 µM; in assay [6] it was 22.7 µM. Also, the GI50 was 39.1 µM in [7], 12.4 µM in assay [8], 51.3 µM in [9] and 21.7 µM in assay [10]. Further, the TGI was > 100 µM in [1]; > 100 µM in [2]; > 100 µM in assay [3]; > 100 µM in [4]; > 100 µM in assay [5]; 91.9 µM in assay [6]. Further, the TGI in assay [7], in [8], in assay [9] and in assay [10] was > 100 µM throughout.

Regarding `CC(C)N(C(=O)C12C3C4C5(C#N)C3C1(I)C5C42I)C(C)C` (stereo not given), the TGI in [1] was > 100 µM; in assay [2], > 100 µM; in assay [3], > 100 µM; in assay [4], > 100 µM; in [5] it was > 58.9 µM; in assay [6] it was > 100 µM. The TGI in assay [7] is > 100 µM; in [8], > 100 µM; in assay [9], > 53.1 µM; in [10] it was > 100 µM.

As for `O=C(/C=C/c1cccnc1)NCCCCC1CCN(C(=O)c2ccccc2)CC1`, the GI50 in [1] is > 100 µM; in assay [2], 31.1 µM and 21.7 µM; in assay [3], 48.5 µM and 6.22 µM; in [4], > 100 µM; in assay [5], 25.4 µM; in assay [6] it was > 100 µM and 62.3 µM. For the same compound, the GI50 in assay [7] was > 100 µM; in assay [8] it was < 0.01 µM; in assay [9], < 0.01 µM; in [10], < 0.01 µM. For the same compound, the TGI in assay [1], in [2], in assay [3], in assay [4], in assay [5] and in [6] was > 100 µM throughout. Moreover, the TGI in assay [7], in [8], in assay [9] and in assay [10] was > 100 µM each time.

As to `Nc1ccc2c(SCCSc3c4ccccc4nc4cc(N)ccc34)c3ccccc3nc2c1`, the TGI was > 100 µM in assay [1]; 39.3 µM in assay [2]; > 100 µM in assay [3]; > 100 µM in [4]; > 100 µM in assay [5]; > 100 µM in [6]. The TGI in assay [7], in assay [8], in assay [9] and in [10] was > 100 µM each time.

`Cc1cccc(C(C)(C)C)c1NC(=O)C(=O)C(C(=O)/C=C\c1ccccc1)C1OC(=O)c2ccccc21` (stereo not given): the TGI in assay [1], in assay [2], in [3], in assay [4], in [5] and in [6] was > 100 µM each time. The TGI in assay [7], in assay [8], in assay [9] and in assay [10] was > 100 µM each time.

For the origin of these results see PubChem BioAssay (NCI).
